{"source": "patent US12655385B2", "about": "“Cell culture compositions with antioxidants and methods for polypeptide production” (Genentech, Inc., priority 2013, dated 2026)", "key": {"IgG1 monoclonal antibody": {"system": "IgG1 monoclonal antibody", "assay": "Antioxidant screening: incubation of Media 1/Media 2 mixture spiked with antibody, color intensity of purified antibody", "details": "1X test concentration (hypotaurine 9.16 mM, taurine 5.00 mM), 5 days 37° C.; normalized to positive control", "experimental": "For antioxidant screening, a total volume of 40 ml media was prepared by mixing 1 part basal Media 1 and 0.3 part feed Media 2 to mirror a representative ratio of media used in cell culture conditions (Table 5). […] The samples were incubated at 37° C. with shaking at 250 rpm for a five day incubation period.\nAfter incubation, the monoclonal antibody was purified using affinity chromatography. Color intensity of the concentrated antibody composition was measured in the purified pool using an assay wherein higher numerical values indicate higher color intensity and lower numerical values indicate lower color intensity. The numerical results were normalized to the positive control, where the value for the positive control was set at 0% change in color intensity."}, "monoclonal antibody": {"system": "monoclonal antibody", "assay": "Screen of taurine, carnosine and aminoguanidine in culture media, relative color intensity of antibody", "details": "27.2 g/L aminoguanidine hydrochloride, 7 days 37° C. 250 rpm (FIG. 10)", "experimental": "In order to identify a compound that reduces in antibody compositions and works under cell culture conditions, a screen assay in cell free medium was conducted. Taurine, carnosine and aminoguanidine were chosen for screening. These compounds were dissolved in 25 mL culture media at the concentration of 1.2 g/L (taurine), 13.6 g/L (carnosine), and 27.2 g/L (aminoguanidine hydrochloride). After pH adjustment to a range from 6.8 to 7.2 and sterile filtration with Steriflip filter units (Millipore, Billerica, MA) the solution was incubated in 50 mL Falcon tubes (BD Biosciences, San Jose, CA) equipped with TubeSpin caps (TPP Techno Plastic Products AG, Trasadingen, Switzerland). CHO cells were incubated for 7 days in a moisture controlled cell culture incubator at 37° C. and 250 rpm with no protection from light to produce the monoclonal antibody.\nThe monoclonal antibody in the harvested cell culture fluid (HCCF) and the incubation broth was further purified with affinity chromatography. Color intensity of the concentrated antibody composition was measured in the purified pool using an assay wherein higher numerical values indicated higher color intensity and lower numerical values indicated lower color intensity.\nThe relative color intensity for antibodies produced in culture medium containing taurine, carnosine, or aminoguanidine are shown in FIG. 10."}, "[1]": {"system": "antibody producing CHO cells", "assay": "2-liter stirred bioreactor fed-batch cell culture in Media 1/Media 2 with hypotaurine or carboxymethylcysteine", "assay_type": "cell-based, Chinese Hamster", "details": "for Growth as measured by VCC: 12.95 mM hypotaurine or 10 mM carboxymethylcysteine in Media 1 (FIG. 7A); for cell viability: 12.95 mM hypotaurine or 10 mM carboxymethylcysteine in Media 1 (FIG. 7B); for antibody titer (HPLC): 12.95 mM hypotaurine or 10 mM carboxymethylcysteine in Media 1 (FIG. 8)", "experimental": "Antibody producing CHO cells were inoculated at approximately 1.0×10^6 cells/mL in 2-liter stirred bioreactors (Applikon, Foster City, CA) containing 1 L of basal Media 1 supplemented with 12.95 mM hypotaurine or 10 mM carboxymethylcysteine (CAS number 638-23-3). Cells were cultured in fed-batch mode with addition of 100 mL of feed Media 2 per liter of cell culture fluid at days 3, 6 and 9 for initiation of the production phase. A positive control was included by culturing cells in Media 1 and 2 without hypotaurine supplementation. The concentration of glucose was analyzed every day and if the glucose concentration fell below 2 g/L, it was replenished from a […] stock solution of glucose for prevention of glucose depletion. Reactors were equipped with calibrated dissolved oxygen, pH and temperature probes. Dissolved oxygen was controlled on-line through sparging with air and/or oxygen. pH was controlled through addition of CO2 or Na2CO3 and antifoam was added to the cultures as needed. The cell cultures were maintained at pH 7.0 and a temperature of 37° C. from days 0 through 3, and then at 35° C. after day 3. The cell cultures were agitated at 275 rpm and the dissolved oxygen level was at 30% of air saturation. Osmolality was monitored using an osmometer from Advanced Instruments (Norwood, MA). Offline pH and metabolite concentrations were also determined daily using a Nova Bioprofile 400 (Nova Biomedical, Waltham, MA). VCC and cell viability was measured daily using a ViCell® automated cell counter (Beckman Coulter, Fullerton, CA). The cell culture fluid was collected daily by centrifuging 1 mL of cell culture fluid for determination of antibody titer using high performance liquid chromatography. At the end of the cell culture duration on day 14, when the amount of protein in the culture was approximately 2-10 g/L, the cell culture fluid from all samples was harvested by centrifugation. The monoclonal antibody in the harvested cell culture fluid was purified using protein A affinity chromatography. The protein A pool was concentrated to 150 g/L using Amicon Centricon centrifugal filter devices (Millipore Corporation, Billerica, MA). Color intensity of the concentrated antibody composition was measured in the concentrated protein A pool using two different assays wherein higher numerical values indicated higher color intensity and lower numerical values indicated lower color intensity. […] This color intensity reduction was confirmed by using a second color assay which detected an approximate 17% and 13% color intensity reduction in antibody compositions isolated from cell cultured in media supplemented with hypotaurine and carboxymethylcysteine, respectively (FIG. 9B)."}, "[2]": {"details": "listed as carboxy methyl cysteine"}}, "note": "Counter-ions that a name gives are not always drawn."}
{"smiles": "NCCS(=O)(=O)O", "note": "[Taurine, 2-aminoethane-1-sulfonic acid]", "values": [{"measurement": "reduction of color intensity of the antibody-containing compositions", "setting": "IgG1 monoclonal antibody", "result": "approximately 5%"}]}
{"smiles": "N=C(N)NN", "note": "[aminoguanidine, aminoguanidine hydrochloride]", "values": [{"measurement": "decrease of color", "setting": "monoclonal antibody", "result": "about 71%"}]}
{"smiles": "N[C@@H](CSCC(=O)O)C(=O)O", "note": "[carboxymethylcysteine, (2R)-2-amino-3-[(carboxymethyl)sulfanyl]propanoic acid]", "values": [{"measurement": "Growth as measured by VCC", "setting": "[1]", "result": "comparable among all cell cultures tested"}, {"measurement": "Growth as measured by VCC", "setting": "[1]; [2]", "result": "did not compromise"}, {"measurement": "cell viability", "setting": "[1]", "result": "comparable among all cell cultures tested"}, {"measurement": "cell viability", "setting": "[1]; [2]", "result": "did not compromise"}, {"measurement": "antibody titer (HPLC)", "setting": "[1]", "result": "comparable levels of antibody titers"}, {"measurement": "antibody titer (HPLC)", "setting": "[1]; [2]", "result": "did not significantly reduce"}, {"measurement": "color intensity reduction of antibody compositions, second color assay", "setting": "[1]; 12.95 mM hypotaurine or 10 mM carboxymethylcysteine, protein A pool concentrated to 150 g/L (FIG. 9B)", "result": "~13", "unit": "%"}]}
